Source: the supplement of paper PMC10307832

Key:
Assay in all cases: relative viability (nuclei count vs DMSO), 5 days (fraction); higher = more cells survive
Vorinostat + Luminespib = compound: O=C(CCCCCCC(=O)Nc1ccccc1)NO [Vorinostat] + CCNC(=O)c1noc(-c2cc(C(C)C)c(O)cc2O)c1-c1ccc(CN2CCOCC2)cc1 [Luminespib] (partner 0.01 µM)
Summary of the method: (§1)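 After 5 days of treatment, lung cancer cells in 1536-well plates were fixed and stained in a single step (final 0.05% Triton X-100, 1% formaldehyde, 1 ug/ml Hoechst) and their nuclei counted on 4× images. Treatment had been applied by pin tool the day after seeding as one drug alone or as a fixed anchor-drug dose with five library-drug doses (not always all listed) in √10 steps. Relative viability is the nuclei count of treated wells divided by that of vehicle wells, and values are medians of duplicate plates.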

Vorinostat + OSI-027 = compound: O=C(CCCCCCC(=O)Nc1ccccc1)NO [Vorinostat] + COc1cccc2cc(-c3nc([C@H]4CC[C@H](C(=O)O)CC4)n4ncnc(N)c34)[nH]c12 [OSI-027] (partner 0.5 µM)
Summary of the method: as §1

Vorinostat + Lapatinib = compound: O=C(CCCCCCC(=O)Nc1ccccc1)NO [Vorinostat] + CS(=O)(=O)CCNCc1ccc(-c2ccc3ncnc(Nc4ccc(OCc5cccc(F)c5)c(Cl)c4)c3c2)o1 [Lapatinib] (partner 2 µM)
Summary of the method: as §1

Vorinostat + Alpelisib = compound: O=C(CCCCCCC(=O)Nc1ccccc1)NO [Vorinostat] + Cc1nc(NC(=O)N2CCC[C@H]2C(N)=O)sc1-c1ccnc(C(C)(C)C(F)(F)F)c1 [Alpelisib] (partner 2 µM)
Summary of the method: as §1

Vorinostat + Decitabine = compound: O=C(CCCCCCC(=O)Nc1ccccc1)NO [Vorinostat] + Nc1ncn([C@H]2C[C@H](O)[C@@H](CO)O2)c(=O)n1 [Decitabine] (partner 2 µM)
Summary of the method: as §1

Cell Line	relative viability (Vorinostat + Luminespib; first compound 0.253 µM)	relative viability (Vorinostat + Luminespib; first compound 0.8 µM)	relative viability (Vorinostat + Luminespib; first compound 2.53 µM)	relative viability (Vorinostat + Luminespib; first compound 8 µM)	relative viability (Vorinostat + OSI-027; first compound 0.253 µM)	relative viability (Vorinostat + OSI-027; first compound 0.8 µM)	relative viability (Vorinostat + OSI-027; first compound 2.53 µM)	relative viability (Vorinostat + OSI-027; first compound 8 µM)	relative viability (Vorinostat + Lapatinib; first compound 0.253 µM)	relative viability (Vorinostat + Lapatinib; first compound 0.8 µM)	relative viability (Vorinostat + Lapatinib; first compound 2.53 µM)	relative viability (Vorinostat + Lapatinib; first compound 8 µM)	relative viability (Vorinostat + Alpelisib; first compound 0.253 µM)	relative viability (Vorinostat + Alpelisib; first compound 0.8 µM)	relative viability (Vorinostat + Alpelisib; first compound 2.53 µM)	relative viability (Vorinostat + Alpelisib; first compound 8 µM)	relative viability (Vorinostat + Decitabine; first compound 0.253 µM)	relative viability (Vorinostat + Decitabine; first compound 0.8 µM)	relative viability (Vorinostat + Decitabine; first compound 2.53 µM)	relative viability (Vorinostat + Decitabine; first compound 8 µM)
201T	1.1	1.09	0.82	0.281	0.837	0.756	0.322	0.118	1.05	0.954	0.929	0.567	0.965	0.982	0.751	0.309	0.845	0.874	0.679	0.266
A549									1.02	0.572	0.168	0.0602	0.861	0.802	0.104	0.0282	0.224	0.302	0.256	0.0174
A-427	1.03	0.892	0.339	0.158	0.535	0.281	0.226	0.105	1.1	1.05	0.929	0.23	1.1	1.1	0.889	0.146	0.551	0.557	0.434	0.166
BEN	0.454	0.176	0.223	0.0986	0.287	0.24	0.0754	0.0473	0.819	0.379	0.151	0.0751	1.07	0.457	0.154	0.0775	0.838	0.55	0.236	0.143
CAL-12T	0.555	0.464	0.383	0.134	0.814	0.746	0.292	0.0987	0.682	0.649	0.438	0.111	1.18	1.07	0.462	0.0781				
COR-L23	0.64	0.305	0.107	0.0643	0.842	0.396	0.151	0.0835	1.07	0.818	0.139	0.0646	0.834	0.372	0.0994	0.0715	0.373	0.301	0.136	0.0929
COR-L 105	0.968	0.892	0.646	0.219	0.839	0.601	0.319	0.182	0.425	0.287	0.252	0.249	1.37	0.783	0.249	0.184	0.588	0.679	0.362	0.256
ChaGo-K-1	0.82	0.804	0.417	0.165	0.553	0.484	0.319	0.176									0.508	0.516	0.389	0.202
EKVX	0.984	0.952	0.659	0.17	0.623	0.659	0.39	0.132	0.217	0.209	0.173	0.107	0.992	0.951	0.4	0.14	0.31	0.324	0.194	0.133
